The supplement of paper PMC10307832

Legend:
Experiment in all cases: relative viability (nuclei count vs DMSO), 5 days (fraction); higher = more cells survive
Sunitinib + Palbociclib = compound: CCN(CC)CCNC(=O)c1c(C)[nH]c(/C=C2\C(=O)Nc3ccc(F)cc32)c1C [Sunitinib] + CC(=O)c1c(C)c2cnc(Nc3ccc(N4CCNCC4)cn3)nc2n(C2CCCC2)c1=O [Palbociclib] (partner 0.5 µM)
Summary of the method: (§1)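 Five library-drug doses in √10 steps were combined with a fixed anchor-drug dose, or a single drug was given alone, by pin tool to lung cancer cell lines in 1536-well plates the day after seeding. Nuclei were stained and counted after 5 days. Relative viability is the nuclei count in treated wells over that in vehicle wells, taken as the median of duplicate plates.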

Sunitinib + Pemetrexed = compound: CCN(CC)CCNC(=O)c1c(C)[nH]c(/C=C2\C(=O)Nc3ccc(F)cc32)c1C [Sunitinib] + Nc1nc2[nH]cc(CCc3ccc(C(=O)N[C@@H](CCC(=O)O)C(=O)O)cc3)c2c(=O)[nH]1 [Pemetrexed] (partner 0.2 µM)
Summary of the method: as §1

Sunitinib + Olaparib = compound: CCN(CC)CCNC(=O)c1c(C)[nH]c(/C=C2\C(=O)Nc3ccc(F)cc32)c1C [Sunitinib] + O=C(c1cc(Cc2n[nH]c(=O)c3ccccc23)ccc1F)N1CCN(C(=O)C2CC2)CC1 [Olaparib] (partner 8 µM)
Summary of the method: as §1

Sunitinib + Alpelisib = compound: CCN(CC)CCNC(=O)c1c(C)[nH]c(/C=C2\C(=O)Nc3ccc(F)cc32)c1C [Sunitinib] + Cc1nc(NC(=O)N2CCC[C@H]2C(N)=O)sc1-c1ccnc(C(C)(C)C(F)(F)F)c1 [Alpelisib] (partner 2 µM)
Summary of the method: as §1

Cell Line | relative viability (Sunitinib + Palbociclib; first compound 0.02 µM) | relative viability (Sunitinib + Palbociclib; first compound 0.06325 µM) | relative viability (Sunitinib + Palbociclib; first compound 0.2 µM) | relative viability (Sunitinib + Palbociclib; first compound 0.6325 µM) | relative viability (Sunitinib + Palbociclib; first compound 2 µM) | relative viability (Sunitinib + Pemetrexed; first compound 0.02 µM) | relative viability (Sunitinib + Pemetrexed; first compound 0.06325 µM) | relative viability (Sunitinib + Pemetrexed; first compound 0.2 µM) | relative viability (Sunitinib + Pemetrexed; first compound 0.6325 µM) | relative viability (Sunitinib + Pemetrexed; first compound 2 µM) | relative viability (Sunitinib + Olaparib; first compound 0.02 µM) | relative viability (Sunitinib + Olaparib; first compound 0.06325 µM) | relative viability (Sunitinib + Olaparib; first compound 0.2 µM) | relative viability (Sunitinib + Olaparib; first compound 0.6325 µM) | relative viability (Sunitinib + Olaparib; first compound 2 µM) | relative viability (Sunitinib + Alpelisib; first compound 0.02 µM) | relative viability (Sunitinib + Alpelisib; first compound 0.06325 µM) | relative viability (Sunitinib + Alpelisib; first compound 0.2 µM) | relative viability (Sunitinib + Alpelisib; first compound 0.6325 µM) | relative viability (Sunitinib + Alpelisib; first compound 2 µM)
HCC-366 | 0.342 | 0.393 | 0.652 | 0.413 | 0.409 | 0.154 | 0.168 | 0.168 | 0.194 | 0.497 | 0.343 | 0.355 | 0.482 | 0.449 | 0.42 | 0.353 | 0.466 | 0.656 | 0.528 | 0.431
HCC-827 | 0.487 | 0.506 | 0.542 | 0.478 | 0.534 | 0.265 | 0.29 | 0.28 | 0.584 | 0.289 | 0.722 | 0.696 | 0.622 | 0.648 | 0.597 | 1.02 | 1.04 | 1.01 | 1.04 | 0.887
HOP-62 | 0.381 | 0.485 | 0.496 | 0.427 | 0.533 | 0.33 | 0.366 | 0.337 | 0.369 | 0.417 | 0.453 | 0.374 | 0.449 | 0.472 | 0.63 | 0.964 | 0.851 | 1.04 | 1.05 | 0.919
IA-LM |  |  |  |  |  |  |  |  |  |  | 0.826 | 0.973 | 0.842 |  | 0.981 | 0.645 | 0.812 | 0.773 | 0.919 | 0.87
LC-2-ad | 0.491 | 0.481 | 0.593 | 0.48 | 0.42 | 0.266 | 0.275 | 0.291 | 0.303 | 0.26 | 0.68 | 0.746 | 0.749 | 0.729 | 0.825 | 0.897 | 0.613 |  | 0.891 | 0.605
LCLC-97TM1 | 0.209 | 0.268 | 0.279 | 0.229 | 0.231 | 0.167 | 0.198 | 0.164 | 0.163 | 0.212 | 0.377 | 0.401 | 0.548 | 0.477 | 0.442 | 0.24 | 0.351 |  | 0.276 | 0.286
LCLC-103H | 0.499 | 0.488 | 0.484 | 0.495 | 0.52 | 0.452 | 0.443 | 0.487 | 0.442 | 0.445 | 0.69 | 0.839 | 0.787 | 0.75 | 0.817 | 0.822 | 0.945 | 0.993 | 0.958 | 0.959
LK-2 | 0.563 |  | 0.681 | 0.586 | 0.642 | 0.266 | 0.335 | 0.31 | 0.254 | 0.292 | 0.668 | 0.82 | 0.926 | 0.617 | 0.6 | 0.942 | 0.906 | 1.28 | 1.18 | 0.916
LOU-NH91 | 0.592 | 0.536 | 0.562 | 0.473 | 0.555 | 0.388 | 0.38 | 0.389 | 0.382 | 0.448 | 0.899 | 0.903 | 1.01 | 1.05 | 0.875 |  | 0.71 | 0.76 | 0.752 | 0.652
